Test system: HCT116
Experiment: cells
Parameters: 2-deoxyglucose uptake inhibition, semi-automated resazurin/diaphorase fluorescence read-out of 2DG6P
Conditions: Homo sapiens, HCT-116, 0.5 h; 2DG uptake
Description: Resazurin-based 2DG uptake assay (semi-automated high throughput) All buffers, reagents and steps were identical with those described for the manual screening Washing and [compound left out] addition steps were done using an automated cell washer or a multidrop device, respectively. Screening was performed in a 384-well plates. 15,000 HCT116 cells/well seeded into 384-well black-walled, clear bottomed plates (CellBIND, Corning) and incubated overnight. Compounds were added at 30 µM (final concentration for screening or serial dilutions staring from 30 µM for IC50 determinations) from DMSO stocks using the acoustic nanoliter dispenser ECHO 520. Fluorescence intensity was read from the bottom with a SpectraMax Paradigm Multi-Mode Microplate Reader (Molecular devices) using SUPPORTING INFORMATION 259 control (which was set to 100 %) and cells without 2DG (set to 0 %) using Graph Pad Prism 5 or 6 software and IC50 values were determined using a four-parameter fit. The observed difference in the obtained IC50 values for Glupin in the automated screening vs. manually performed assay is most likely attributed to the minituarization that is required for high-troughput screening and usually requires different plate format (384 vs. 96-well plates) and different cell number. In this case, the automated assay was performed in 384-well plates (vs. 96-well plates for the manual assay) with 15,000 cells per well (vs. 40,000 cells per well in the 96-well plates). For kinetic measurements, 15,000 cells were seeded into black CellBIND 384-well plates (Corning) and allowed to attach overnight. Then, the plates were washed 3X with KRB buffer containing 0.1%BSA and treated with different concentrations of 2DG (0-60mM) and Glupin (0-1µM) for 30s to 30min. The uptake was determined using the resazurin/diaphorase system as described above. 2DG uptake was stopped by aspirating the 2DG solution followed by quick wash with ice-cold KRB buffer (0.1 % BSA). Km and Vmax were determined by fitting the data according to Michaelis-Menten using non-linear fitting. The glucose uptake assay monitored the inhibition of 2‐deoxyglucose (2DG) uptake as described by Yamamoto et al.25 Briefly, 2DG uptake is determined by quantification of the 2DG‐6‐phosphate (2DG6P) that accumulates inside the cells by using the diaphorase‐resazurin/‐resorufin system (see Figure S7 a).

| Structure (SMILES) | IC50 |
| --- | --- |
| CCOC(=O)Cn1c2c(c3ccccc31)CC1CC2C(OC)CN1C(=O)c1ccncc1 (racemic) [5ao, (±)-Ethyl 2-(3-isonicotinoyl-5-methoxy-1,2,3,4,5,6-hexahydro-7H-2,6-methanoazocino[5,4-b]indol-7-yl)acetate] | 13000 ± 3000 nM |
| CCOC(=O)Cn1c2c(c3ccccc31)CC1CC2C(OC)CN1C(=O)c1cncnc1 (racemic) [5ap, (±)-Ethyl 2-(5-methoxy-3-(pyrimidine-5-carbonyl)-1,2,3,4,5,6-hexahydro-7H-2,6-methanoazocino[5,4-b]indol-7-yl)acetate] | 14000 ± 5000 nM |
| CCOC(=O)Cn1c2c(c3ccccc31)CC1CC2C(OC)CN1C(=O)c1cccs1 (racemic) [5aq, (±)-Ethyl 2-(5-methoxy-3-(thiophene-2-carbonyl)-1,2,3,4,5,6-hexahydro-7H-2,6-methanoazocino[5,4-b]indol-7-yl)acetate] | 3000 ± 400 nM |
| CCOC(=O)Cn1c2c(c3ccccc31)CC1CC2C(OC)CN1C(=O)c1ccc(C)o1 (racemic) [5at, (±)-Ethyl 2-(5-methoxy-3-(5-methylfuran-2-carbonyl)-1,2,3,4,5,6-hexahydro-7H-2,6-methanoazocino[5,4-b]indol-7-yl)acetate] | 8600 ± 4000 nM |
| CCOC(=O)Cn1c2c(c3ccccc31)CC1CC2C(OC(C)=O)CN1C(=O)c1cccnc1SC (racemic) [5b, (±)-Ethyl 2-(5-acetoxy-3-(2-(methylthio)nicotinoyl)-1,2,3,4,5,6-hexahydro-7H-2,6-methanoazocino[5,4-b]indol-7-yl)acetate] | 53 ± 23 nM |
| COC1CN(C(=O)c2cccnc2SC)C2Cc3c([nH]c4ccccc34)C1C2 (racemic) [5j, (±)-(5-methoxy-1,2,4,5,6,7-hexahydro-3H-2,6-methanoazocino[5,4-b]indol-3-yl)(2-(methylthio)pyridin-3-yl)methanone] | > 30000 nM |
| COC1CN(C(=O)c2cccnc2SC)C2Cc3c(n(CC(=O)O)c4ccccc34)C1C2 (racemic) [5n, (±)-2-(5-methoxy-3-(2-(methylthio)nicotinoyl)-1,2,3,4,5,6-hexahydro-7H-2,6-methanoazocino[5,4-b]indol-7-yl)acetic acid] | 10000 ± 4000 nM |
| COC1CN(C(=O)c2cccnc2SC)C2Cc3c(n(Cc4ccco4)c4ccccc34)C1C2 (racemic) [5o, (±)-(7-(furan-2-ylmethyl)-5-methoxy-5,6-dihydro-1H-2,6-methanoazocino[5,4-b]indol-3(2H,4H,7H)-yl)(2-(methylthio)pyridin-3-yl)methanone] | 6700 ± 2400 nM |
| CCOC(=O)n1c2c(c3ccccc31)CC1CC2C(OC)CN1C(=O)c1cccnc1SC (racemic) [5p, (±)-ethyl 5-methoxy-3-(2-(methylthio)nicotinoyl)-3,4,5,6-tetrahydro-1H-2,6-methanoazocino[5,4-b]indole-7(2H)-carboxylate] | 28000 ± 2000 nM |
| CCOC(=O)CCn1c2c(c3ccccc31)CC1CC2C(OC)CN1C(=O)c1cccnc1SC (racemic) [5q, (±)-ethyl 3-(5-methoxy-3-(2-(methylthio)nicotinoyl)-3,4,5,6-tetrahydro-1H-2,6-methanoazocino[5,4-b]indol-7(2H)-yl)propanoate] | 8400 ± 3600 nM |
| CCOC(=O)Cn1c2c(c3ccccc31)CC1CC2C(OC)CN1C(=O)c1cccnc1 (racemic) [5t, (±)-Ethyl 2-(5-methoxy-3-nicotinoyl-3,4,5,6-tetrahydro-1H-2,6-methanoazocino[5,4-b]indol-7(2H)-yl)acetate] | 2300 ± 800 nM |
| CCOC(=O)Cn1c2c(c3ccccc31)CC1CC2C(OC)CN1C(=O)c1c(C(F)(F)F)ccnc1SC (racemic) [5x, (±)-Ethyl 2-(5-methoxy-3-(2-(methylthio)-4-(trifluoromethyl)nicotinoyl)-1,2,3,4,5,6-hexahydro-7H-2,6-methanoazocino[5,4-b]indol-7-yl)acetate] | 6700 ± 1600 nM |
| CCOC(=O)Cn1c2c(c3ccccc31)CC1CC2C(OC)CN1C(=O)c1cc(C(F)(F)F)cnc1SC (racemic) [5y, (±)-Ethyl 2-(5-methoxy-3-(2-(methylthio)-5-(trifluoromethyl)nicotinoyl)-1,2,3,4,5,6-hexahydro-7H-2,6-methanoazocino[5,4-b]indol-7-yl)acetate] | 14000 ± 4000 nM |

The remaining compounds from weak to strong by IC50, led by results:

| IC50 | Structure (SMILES) |
| --- | --- |
| 1400 ± 200 nM | CCOC(=O)Cn1c2c(c3cc(Cl)ccc31)CC1CC2C(OC)CN1C(=O)c1cccnc1SC (racemic) [5g, (±)-Ethyl 2-(10-chloro-5-methoxy-3-(2-(methylthio)nicotinoyl)-1,2,3,4,5,6-hexahydro-7H-2,6-methanoazocino[5,4-b]indol-7-yl)acetate] |
| 540 ± 160 nM | CCOC(=O)Cn1c2c(c3ccccc31)CC1CC2C(OC)CN1C(=O)c1cccnc1F (racemic) [5u, (±)-Ethyl 2-(3-(2-fluoronicotinoyl)-5-methoxy-1,2,3,4,5,6-hexahydro-7H-2,6-methanoazocino[5,4-b]indol-7-yl)acetate] |
| 230 ± 50 nM | CCOC(=O)Cn1c2c(c3ccccc31)CC1CC2C(OC)CN1C(=O)c1cccnc1OC (racemic) [5v, (±)-Ethyl 2-(5-methoxy-3-(2-methoxynicotinoyl)-1,2,3,4,5,6-hexahydro-7H-2,6-methanoazocino[5,4-b]indol-7-yl)acetate] |
| 210 ± 90 nM | CCOC(=O)Cn1c2c(c3cccc(Cl)c31)CC1CC2C(OC)CN1C(=O)c1cccnc1SC (racemic) [5h, (±)-Ethyl 2-(8-chloro-5-methoxy-3-(2-(methylthio)nicotinoyl)-1,2,3,4,5,6-hexahydro-7H-2,6-methanoazocino[5,4-b]indol-7-yl)acetate] |
| 190 ± 60 nM | COC1CN(C(=O)c2cccnc2SC)C2Cc3c(n(CC(=O)OC(C)(C)C)c4ccccc34)C1C2 (racemic) [5k, (±)-tert-butyl 2-(5-methoxy-3-(2-(methylthio)nicotinoyl)-3,4,5,6-tetrahydro-1H-2,6-methanoazocino[5,4-b]indol-7(2H)-yl)acetate] |
| 130 ± 50 nM | CCOC(=O)Cn1c2c(c3ccccc31)CC1CC2C(O)CN1C(=O)c1cccnc1SC (racemic) [5c, (±)-Ethyl 2-(5-hydroxy-3-(2-(methylthio)nicotinoyl)-1,2,3,4,5,6-hexahydro-7H-2,6-methanoazocino[5,4-b]indol-7-yl)acetate] |
| 120 ± 30 nM | CCOC(=O)Cn1c2c(c3ccccc31)CC1CC2C(OC)CN1C(=O)c1cccnc1C(F)(F)F (racemic) [5w, (±)-Ethyl 2-(5-methoxy-3-(2-(trifluoromethyl)nicotinoyl)-1,2,3,4,5,6-hexahydro-7H-2,6-methanoazocino[5,4-b]indol-7-yl)acetate] |
| 100 ± 60 nM | CCOC(=O)Cn1c2c(c3cc(O)ccc31)CC1CC2C(OC)CN1C(=O)c1cccnc1SC (racemic) [5f, (±)-Ethyl 2-(-10-hydroxy-5-methoxy-3-(2-(methylthio)nicotinoyl)-1,2,3,4,5,6-hexahydro-7H-2,6-methanoazocino[5,4-b]indol-7-yl)acetate] |
| 93 ± 35 nM | CCCOC(=O)Cn1c2c(c3ccccc31)CC1CC2C(OC)CN1C(=O)c1cccnc1SC (racemic) [5l, (±)-Propyl 2-(-5-methoxy-3-(2-(methylthio)nicotinoyl)-3,4,5,6-tetrahydro-1H-2,6-methanoazocino[5,4-b]indol-7(2H)-yl)acetate] |
| 87 ± 15 nM | CCCOC1CN(C(=O)c2cccnc2SC)C2Cc3c(n(CC(=O)OCC)c4ccccc34)C1C2 (racemic) [5d, (±)-Ethyl 2-(3-(2-(methylthio)nicotinoyl)-5-propoxy-1,2,3,4,5,6-hexahydro-7H-2,6-methanoazocino[5,4-b]indol-7-yl)acetate] |

Reference: PMC6900016, “Synthesis of Indomorphan Pseudo‐Natural Product Inhibitors of Glucose Transporters GLUT‐1 and ‐3” (Angewandte Chemie (International Ed. in English), 2019)
